Laboratory results: ChEMBL document CHEMBL3991601, “The target landscape of clinical kinase drugs” (Science, 2017)
The source made the active and inactive calls.

Assays:
[1] = target: T1, Peroxisomal acyl-coenzyme A oxidase 3 (Homo sapiens, UniProt O15254)
T1 sequence (O15254 whole entry): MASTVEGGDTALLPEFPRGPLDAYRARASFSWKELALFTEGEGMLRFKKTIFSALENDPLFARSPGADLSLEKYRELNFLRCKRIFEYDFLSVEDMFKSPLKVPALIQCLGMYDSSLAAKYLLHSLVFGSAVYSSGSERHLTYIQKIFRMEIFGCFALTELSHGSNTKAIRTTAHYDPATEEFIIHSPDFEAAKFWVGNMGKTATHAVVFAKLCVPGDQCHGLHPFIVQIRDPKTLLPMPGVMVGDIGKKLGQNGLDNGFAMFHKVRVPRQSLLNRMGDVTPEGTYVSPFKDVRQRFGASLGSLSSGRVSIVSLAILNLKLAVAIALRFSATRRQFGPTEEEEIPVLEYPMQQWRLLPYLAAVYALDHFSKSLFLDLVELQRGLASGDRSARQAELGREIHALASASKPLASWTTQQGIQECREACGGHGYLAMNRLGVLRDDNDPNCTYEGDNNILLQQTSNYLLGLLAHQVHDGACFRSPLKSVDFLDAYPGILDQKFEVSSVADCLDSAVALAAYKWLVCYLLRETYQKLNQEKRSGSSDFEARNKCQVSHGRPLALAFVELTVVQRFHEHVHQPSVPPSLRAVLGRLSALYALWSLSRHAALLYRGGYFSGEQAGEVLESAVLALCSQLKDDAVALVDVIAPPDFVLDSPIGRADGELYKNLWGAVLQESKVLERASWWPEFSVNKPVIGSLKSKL

[2] = target: RAC-gamma serine/threonine-protein kinase (Homo sapiens, UniProt Q9Y243)
RAC-gamma serine/threonine-protein kinase, sequence (Q9Y243 whole entry, the tested form may be a part): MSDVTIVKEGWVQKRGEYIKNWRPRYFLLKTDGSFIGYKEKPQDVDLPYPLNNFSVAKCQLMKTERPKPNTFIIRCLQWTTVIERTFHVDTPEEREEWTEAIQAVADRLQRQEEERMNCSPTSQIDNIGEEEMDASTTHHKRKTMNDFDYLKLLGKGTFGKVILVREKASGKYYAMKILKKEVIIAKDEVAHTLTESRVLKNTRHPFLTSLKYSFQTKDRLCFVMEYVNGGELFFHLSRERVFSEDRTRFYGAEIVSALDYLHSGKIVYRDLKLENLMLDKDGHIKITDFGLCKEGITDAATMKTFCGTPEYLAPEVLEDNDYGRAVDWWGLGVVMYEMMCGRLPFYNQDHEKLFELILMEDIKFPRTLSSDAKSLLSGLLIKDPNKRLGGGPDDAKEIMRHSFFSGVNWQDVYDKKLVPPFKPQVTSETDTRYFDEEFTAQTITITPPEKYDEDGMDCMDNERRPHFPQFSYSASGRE

LIM domain kinase 2 = LIM domain kinase 2 (Homo sapiens, UniProt P53671)
LIM domain kinase 2, sequence (P53671 whole entry, the tested form may be a part): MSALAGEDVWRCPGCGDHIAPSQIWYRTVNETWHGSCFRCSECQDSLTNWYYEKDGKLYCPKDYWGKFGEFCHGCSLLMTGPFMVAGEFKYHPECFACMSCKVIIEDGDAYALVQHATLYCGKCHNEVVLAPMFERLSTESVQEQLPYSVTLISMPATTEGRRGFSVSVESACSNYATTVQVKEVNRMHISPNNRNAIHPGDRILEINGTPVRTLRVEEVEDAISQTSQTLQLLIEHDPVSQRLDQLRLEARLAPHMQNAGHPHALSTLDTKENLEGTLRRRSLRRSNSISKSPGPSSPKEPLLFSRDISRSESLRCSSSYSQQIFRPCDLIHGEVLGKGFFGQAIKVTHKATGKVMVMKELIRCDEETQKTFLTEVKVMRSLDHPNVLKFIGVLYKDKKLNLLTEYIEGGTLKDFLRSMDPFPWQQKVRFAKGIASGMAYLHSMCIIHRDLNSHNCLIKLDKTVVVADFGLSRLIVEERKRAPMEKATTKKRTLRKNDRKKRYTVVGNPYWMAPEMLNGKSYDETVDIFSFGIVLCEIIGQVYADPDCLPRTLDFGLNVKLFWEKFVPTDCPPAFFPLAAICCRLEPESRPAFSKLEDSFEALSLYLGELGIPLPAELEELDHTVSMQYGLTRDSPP

[3] = target: Mitogen-activated protein kinase 8 (Homo sapiens, UniProt P45983)
Mitogen-activated protein kinase 8, sequence (P45983 whole entry, canonical isoform): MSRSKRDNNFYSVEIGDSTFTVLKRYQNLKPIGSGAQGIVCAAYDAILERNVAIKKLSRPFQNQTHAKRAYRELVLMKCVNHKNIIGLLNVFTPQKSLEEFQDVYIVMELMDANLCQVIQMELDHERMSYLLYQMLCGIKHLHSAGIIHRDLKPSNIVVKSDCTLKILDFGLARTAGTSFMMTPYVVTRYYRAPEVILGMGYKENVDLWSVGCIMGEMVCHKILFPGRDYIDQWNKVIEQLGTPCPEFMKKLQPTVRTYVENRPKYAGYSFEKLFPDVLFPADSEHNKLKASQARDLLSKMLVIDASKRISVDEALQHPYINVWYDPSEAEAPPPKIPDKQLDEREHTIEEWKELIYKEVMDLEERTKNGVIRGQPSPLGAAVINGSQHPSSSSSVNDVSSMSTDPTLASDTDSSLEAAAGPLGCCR

[4] = target: S-adenosylmethionine synthase isoform type-2 (Homo sapiens, UniProt P31153)
S-adenosylmethionine synthase isoform type-2, sequence (P31153 whole entry, canonical isoform): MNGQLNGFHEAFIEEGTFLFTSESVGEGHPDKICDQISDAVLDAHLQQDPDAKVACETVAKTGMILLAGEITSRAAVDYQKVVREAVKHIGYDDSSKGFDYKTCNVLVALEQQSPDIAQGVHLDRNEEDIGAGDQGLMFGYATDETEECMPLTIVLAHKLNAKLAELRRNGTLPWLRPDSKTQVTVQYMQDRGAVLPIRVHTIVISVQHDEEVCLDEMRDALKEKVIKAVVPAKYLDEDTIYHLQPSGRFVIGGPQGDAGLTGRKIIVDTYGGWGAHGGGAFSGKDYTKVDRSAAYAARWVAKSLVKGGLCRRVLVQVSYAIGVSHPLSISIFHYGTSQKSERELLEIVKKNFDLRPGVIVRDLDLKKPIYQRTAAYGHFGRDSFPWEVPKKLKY

Pyridoxal kinase = target: T2, Pyridoxal kinase (Homo sapiens, UniProt O00764)
T2 sequence (O00764 whole entry): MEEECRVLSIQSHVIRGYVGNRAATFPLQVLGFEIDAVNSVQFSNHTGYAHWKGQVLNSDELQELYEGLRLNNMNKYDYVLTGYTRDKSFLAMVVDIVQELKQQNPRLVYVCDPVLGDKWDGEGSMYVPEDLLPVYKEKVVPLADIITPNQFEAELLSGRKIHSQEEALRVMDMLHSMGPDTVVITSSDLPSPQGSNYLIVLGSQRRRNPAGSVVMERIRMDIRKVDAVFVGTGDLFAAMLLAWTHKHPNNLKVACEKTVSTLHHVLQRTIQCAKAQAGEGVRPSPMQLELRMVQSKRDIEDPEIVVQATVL

[5] = target: T3, Ras-related protein Rab-27A (Homo sapiens, UniProt P51159)
T3 sequence (P51159 whole entry): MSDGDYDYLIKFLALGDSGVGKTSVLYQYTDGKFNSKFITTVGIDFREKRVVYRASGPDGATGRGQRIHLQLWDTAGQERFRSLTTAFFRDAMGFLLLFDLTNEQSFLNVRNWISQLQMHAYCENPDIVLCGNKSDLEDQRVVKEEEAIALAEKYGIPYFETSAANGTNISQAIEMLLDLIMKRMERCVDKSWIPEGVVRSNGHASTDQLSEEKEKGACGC

[6] = target: T4, Serine/threonine-protein kinase TAO2 (Homo sapiens, UniProt Q9UL54)
T4 sequence (Q9UL54 whole entry): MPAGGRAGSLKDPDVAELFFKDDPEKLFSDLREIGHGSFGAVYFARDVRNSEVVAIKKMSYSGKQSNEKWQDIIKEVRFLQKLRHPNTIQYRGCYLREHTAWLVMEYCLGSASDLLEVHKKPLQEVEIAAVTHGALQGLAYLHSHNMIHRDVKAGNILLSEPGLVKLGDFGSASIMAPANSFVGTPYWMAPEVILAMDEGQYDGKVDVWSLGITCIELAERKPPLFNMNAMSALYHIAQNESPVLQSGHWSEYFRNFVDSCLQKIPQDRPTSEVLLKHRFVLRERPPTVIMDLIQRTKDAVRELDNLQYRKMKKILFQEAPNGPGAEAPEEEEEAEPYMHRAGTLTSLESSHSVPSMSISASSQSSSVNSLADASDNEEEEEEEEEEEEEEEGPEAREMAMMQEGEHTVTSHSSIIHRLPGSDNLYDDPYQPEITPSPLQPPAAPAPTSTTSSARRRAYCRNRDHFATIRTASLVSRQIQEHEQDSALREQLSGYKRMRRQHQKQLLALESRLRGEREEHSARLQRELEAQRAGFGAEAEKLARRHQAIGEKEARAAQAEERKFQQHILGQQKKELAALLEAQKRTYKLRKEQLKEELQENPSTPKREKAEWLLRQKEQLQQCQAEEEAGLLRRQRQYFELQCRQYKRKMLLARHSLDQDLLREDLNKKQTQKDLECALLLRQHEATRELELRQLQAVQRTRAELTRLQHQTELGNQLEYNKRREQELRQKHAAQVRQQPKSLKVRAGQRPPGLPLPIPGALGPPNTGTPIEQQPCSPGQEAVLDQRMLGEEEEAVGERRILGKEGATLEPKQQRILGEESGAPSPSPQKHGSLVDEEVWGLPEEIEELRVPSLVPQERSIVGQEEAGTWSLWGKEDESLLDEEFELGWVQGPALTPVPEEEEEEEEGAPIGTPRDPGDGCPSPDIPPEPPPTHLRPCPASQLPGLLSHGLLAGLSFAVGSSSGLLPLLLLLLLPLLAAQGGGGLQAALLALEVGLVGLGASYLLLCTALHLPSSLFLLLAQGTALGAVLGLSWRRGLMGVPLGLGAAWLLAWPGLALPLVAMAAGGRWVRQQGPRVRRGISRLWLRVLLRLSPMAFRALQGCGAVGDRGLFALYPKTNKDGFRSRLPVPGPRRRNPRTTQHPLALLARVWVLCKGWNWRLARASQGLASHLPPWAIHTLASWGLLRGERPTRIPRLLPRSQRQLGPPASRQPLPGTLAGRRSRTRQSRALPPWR
Note: in the data inactive means no Kd found up to 30 µM.

SMILES	Kd [1]	Kd [2]	Kd (LIM domain kinase 2)	Kd [3]	Kd [4]	Kd (Pyridoxal kinase)	Kd [5]	Kd [6]
c1cc(OCCN2CCCCC2)cc(-c2n[nH]c3ccc(-c4nc[nH]n4)cc23)c1 [CC-401]	> 30 µM (inactive)	> 30 µM (inactive)	> 30 µM (inactive)	0.636 µM (active)	> 30 µM (inactive)	> 30 µM (inactive)	> 30 µM (inactive)	> 30 µM (inactive)
C=CC(=O)Nc1cc(Nc2nccc(-c3cn(C)c4ccccc34)n2)c(OC)cc1N(C)CCN(C)C [OSIMERTINIB]	> 30 µM (inactive)	> 30 µM (inactive)	> 30 µM (inactive)	> 30 µM (inactive)	> 30 µM (inactive)	> 30 µM (inactive)	> 30 µM (inactive)	> 30 µM (inactive)
COc1cc(Nc2ncc(F)c(Nc3ccc4c(n3)N(COP(=O)(O)O)C(=O)C(C)(C)O4)n2)cc(OC)c1OC [FOSTAMATINIB]	> 30 µM (inactive)	> 30 µM (inactive)	> 30 µM (inactive)	2.01 µM (active)	> 30 µM (inactive)	> 30 µM (inactive)	> 30 µM (inactive)	> 30 µM (inactive)
CC(C)CC(=O)Nc1[nH]nc2c1CN(C(=O)C1CCN(C)CC1)C2(C)C [PHA-793887]	> 30 µM (inactive)	> 30 µM (inactive)	> 30 µM (inactive)	> 30 µM (inactive)	> 30 µM (inactive)	> 30 µM (inactive)	> 30 µM (inactive)	> 30 µM (inactive)
CC[C@@](C)(Nc1ccnc(-c2c[nH]c3ncccc23)n1)C(=O)NCC(F)(F)F [DECERNOTINIB]	> 30 µM (inactive)	> 30 µM (inactive)	> 30 µM (inactive)	> 30 µM (inactive)	> 30 µM (inactive)	> 30 µM (inactive)	> 30 µM (inactive)	> 30 µM (inactive)
O=c1[nH]c([C@@H]2CCCN2)nc2c1oc1ccc(Cl)cc12	> 30 µM (inactive)	> 30 µM (inactive)	> 30 µM (inactive)	> 30 µM (inactive)	> 30 µM (inactive)	> 30 µM (inactive)	> 30 µM (inactive)	> 30 µM (inactive)
Cn1cc(-c2[nH]c3cc(NC(=O)[C@H](N)C4CCCCC4)cc4c3c2C=NNC4=O)cn1	> 30 µM (inactive)	> 30 µM (inactive)	0.205 µM (active)	> 30 µM (inactive)	> 30 µM (inactive)	> 30 µM (inactive)	> 30 µM (inactive)	> 30 µM (inactive)
COCCN1CCN(Cc2ccc(-c3n[nH]c4c3C(=O)c3c(NC(=O)NN5CCOCC5)cccc3-4)cc2)CC1 [RGB-286638]	> 30 µM (inactive)	> 30 µM (inactive)	> 30 µM (inactive)	0.731 µM (active)	> 30 µM (inactive)	> 30 µM (inactive)	> 30 µM (inactive)	> 30 µM (inactive)
CCc1nc(C(N)=O)c(Nc2ccc(N3CCC(N4CCN(C)CC4)CC3)c(OC)c2)nc1NC1CCOCC1 [GILTERITINIB]	> 30 µM (inactive)	> 30 µM (inactive)	> 30 µM (inactive)	0.736 µM (active)	> 30 µM (inactive)	> 30 µM (inactive)	> 30 µM (inactive)	2.09 µM (active)
CCN1CCN(Cc2ccc(Nc3ncc(F)c(-c4cc(F)c5nc(C)n(C(C)C)c5c4)n3)nc2)CC1 [ABEMACICLIB]	> 30 µM (inactive)	> 30 µM (inactive)	> 30 µM (inactive)	3.76 µM (active)	> 30 µM (inactive)	> 30 µM (inactive)	> 30 µM (inactive)	> 30 µM (inactive)
O=C(NC[C@H](O)CO)c1ccncc1Nc1ccc(I)cc1F [PIMASERTIB]	> 30 µM (inactive)	> 30 µM (inactive)	> 30 µM (inactive)	> 30 µM (inactive)	> 30 µM (inactive)	> 30 µM (inactive)	> 30 µM (inactive)	> 30 µM (inactive)
Cc1cc(-c2cc(OC(=O)c3ccccc3)ccc2Cl)cc2nnc(Nc3ccc(OCCN4CCCC4)cc3)nc12 [TG100-801]	> 30 µM (inactive)	> 30 µM (inactive)	> 30 µM (inactive)	> 30 µM (inactive)	> 30 µM (inactive)	> 30 µM (inactive)	> 30 µM (inactive)	> 30 µM (inactive)
COc1cc2nccc(Oc3ccc(NC(=O)C4(C(=O)Nc5ccc(F)cc5)CC4)cc3)c2cc1OC [CABOZANTINIB]	> 30 µM (inactive)	> 30 µM (inactive)	> 30 µM (inactive)	> 30 µM (inactive)	> 30 µM (inactive)	> 30 µM (inactive)	> 30 µM (inactive)	> 30 µM (inactive)

Now from value to compound:

Kd [1]	Kd [2]	Kd (LIM domain kinase 2)	Kd [3]	Kd [4]	Kd (Pyridoxal kinase)	Kd [5]	Kd [6]	SMILES
> 30 µM (inactive)	> 30 µM (inactive)	> 30 µM (inactive)	> 30 µM (inactive)	> 30 µM (inactive)	> 30 µM (inactive)	> 30 µM (inactive)	> 30 µM (inactive)	COc1ccc2c(OCc3nnc4ccc(-c5ccccc5)nn34)ccnc2c1 [AMG-208]
> 30 µM (inactive)	> 30 µM (inactive)	> 30 µM (inactive)	> 30 µM (inactive)	> 30 µM (inactive)	> 30 µM (inactive)	> 30 µM (inactive)	> 30 µM (inactive)	NC(=O)c1ccc(N(C(N)=O)c2c(F)cccc2F)nc1-c1ccc(F)cc1F [VX-702]
> 30 µM (inactive)	> 30 µM (inactive)	> 30 µM (inactive)	> 30 µM (inactive)	> 30 µM (inactive)	> 30 µM (inactive)	> 30 µM (inactive)	> 30 µM (inactive)	COc1cccc(Nc2ncnn3ccc(CN4CC[C@@H](N)[C@H](O)C4)c23)c1 [BMS-690514]
> 30 µM (inactive)	> 30 µM (inactive)	> 30 µM (inactive)	> 30 µM (inactive)	> 30 µM (inactive)	> 30 µM (inactive)	> 30 µM (inactive)	> 30 µM (inactive)	O=C(Nc1ccc(OC(F)(F)F)cc1)c1sccc1NCc1ccnc2ccccc12 [OSI-930]
